Results on four molecules are retold here after US20120148595A1, “GABA-LINKED ANTHRACYCLINE-LIPID CONJUGATES” (Luitpold Pharmaceuticals, Inc., priority 2009, published 2012).

One data set relates to tumor growth. In words: anti-tumor activity of GABA-linked conjugate compared to the unconjugated anticancer agent (model not given). As to conditions: model not specified. The data set is classed as in vivo. The source says:
The anti-tumor activity of LOC-GABA-doxorubicin was studied in three tumor models.

In another data set the test system is M109-Lung Tumor. In words: M109-Lung Tumor Model (Table 5, second study with OOC-GABA-doxorubicin). The data set is classed as in vivo, mouse. The source says: (§1) The dosing schedule was Q3D×5.
The conditions of data set [1]: cited from earlier work.
Data set [2] in a line: Toxicology: maximum tolerated dose, i.v. Q3D×5. As to conditions: mouse, in vivo, iv, i.v. 5 times on a once every three day schedule.
Excerpt: as §1

The next data set has as its system HT-29 human colon tumor. In words: nude mouse xenograft model of the HT-29 human colon tumor. Type of data set: in vivo. As to conditions: nude mouse. The protocol: as §1
In the nude mouse xenograft model of the HT-29 human colon tumor (Table 3), doxorubicin produced a T-C delay of 15.3 days at the MTD dose of 6 mg/kg, whereas P-367 (LOC-GABA-doxorubicin) produced a T-C delay of 32 days at 50 mg/kg and 22 at 25 mg/kg. Note that the activity of the lowest dose of LOC-GABA-doxorubicin is approximately equivalent to the highest, MTD of doxorubicin itself.
(In general: In xenograft studies the graft and the host belong to different species.)

Data set [3] relates to Madison 109 (M109) mouse lung carcinoma. The protocol: In all of the following in vivo experiments, the parent compound, doxorubicin, was injected intravenously (i.v.) in saline, while the fatty acid conjugates of doxorubicin were injected i.v. in 10% Cremophor® EL-P/10% ethanol/80% saline. The dosing schedule was Q3D×5.
T-C in this assay is defined as the time in days for the drug-treated tumors to double their mass three times subtracted […] to double their mass three times.

Data set [4] relates to MDA-MB-435 human breast tumor. The data set can be described thus: nude mouse xenograft model of the MDA-MB-435 human breast tumor. The data set is classed as in vivo. As to conditions: nude mouse. The protocol:
as §1
In the nude mouse xenograft model of the MDA-MB-435 human breast tumor (Table 4), doxorubicin produced a T-C delay of 14 days at the approximate MTD dose of 6 mg/kg (1/10 drug-related deaths). In the same model, LOC-GABA-doxorubicin produced a T-C delay of 13 days at 50 mg/kg (6/10 drug-related deaths) and 1.5 days at 25 mg/kg (0 drug-related deaths).

Where two headings read alike, the source gives them in different places.

Turning to `CC/C=C\C/C=C\C/C=C\C/C=C\C/C=C\C/C=C\CCC(=O)NCCCC(=O)O[C@H]1C[C@H]2OC[C@@]2(OC(C)=O)[C@H]2[C@H](OC(=O)c3ccccc3)[C@]3(O)C[C@H](OC(=O)[C@H](O)[C@@H](NC(=O)c4ccccc4)c4ccccc4)C(C)=C([C@@H](OC(C)=O)C(=O)[C@]12C)C3(C)C`, the “anti-tumor activity compared to the unconjugated drug” value with tumor growth is reported as “did not show superior anti-tumor activity”.

For the molecule `CCCCCCCC/C=C\CCCCCCCCOC(=O)NCCCC(=O)N[C@H]1C[C@H](O[C@H]2C[C@](O)(C(=O)CO)Cc3c(O)c4c(c(O)c32)C(=O)c2c(OC)cccc2C4=O)O[C@@H](C)[C@H]1O` [OOC-GABA-doxorubicin, oleyl alcohol-GABA-doxorubicin], the “Complete Regressions” value in the data set on M109-Lung Tumor (50 mg/kg i.v. Q3D×5), with M109-Lung Tumor (75 mg/kg i.v. Q3D×5), with M109-Lung Tumor (100 mg/kg i.v. Q3D×5) and in the data set on M109-Lung Tumor (125 mg/kg i.v. Q3D×5) was 0 in each case. The “Days Delay T-C” value turned out to be 10.0 days with M109-Lung Tumor (50 mg/kg i.v. Q3D×5), 8.9 days in the data set with M109-Lung Tumor (75 mg/kg i.v. Q3D×5) and 10.3 days in the data set with M109-Lung Tumor (100 mg/kg i.v. Q3D×5). Moreover, the “Drug-related Deaths” value is given as 0/5 with M109-Lung Tumor (50 mg/kg i.v. Q3D×5), 0/5 in the data set with M109-Lung Tumor (75 mg/kg i.v. Q3D×5), 1/5 in the data set with M109-Lung Tumor (100 mg/kg i.v. Q3D×5) and 3/5 with M109-Lung Tumor (125 mg/kg i.v. Q3D×5). The “anti-tumor activity compared to doxorubicin” value in the data set with M109-Lung Tumor (M109 mouse lung carcinoma model) is given as “superior anti-tumor activity”.

Regarding `CCC=CCC=CCC=CCC=CCC=CCC=CCCC(=O)NCCCC(=O)OC(C(=O)OC1CC2(O)C(OC(=O)c3ccccc3)C3C4(OC(C)=O)COC4CC(O)C3(C)C(=O)C(OC(C)=O)C(=C1C)C2(C)C)C(NC(=O)c1ccccc1)c1ccccc1` (centres unmarked), the “anti-tumor activity compared to the unconjugated drug” value in the data set with tumor growth is reported as “superior activity in inhibiting tumor growth”.

Broadly, the MTD is the highest dose tested that stayed within the study's limit of toxicity. For `COc1cccc2c1C(=O)c1c(O)c3c(c(O)c1C2=O)C[C@@](O)(C(=O)CO)C[C@@H]3O[C@H]1C[C@H](N)[C@H](O)[C@H](C)O1` [Doxorubicin, reference compound], the “Complete Regressions” value with M109-Lung Tumor (2 mg/kg i.v. Q3D×5), in the data set on M109-Lung Tumor (4 mg/kg i.v. Q3D×5), in the data set with M109-Lung Tumor (6 mg/kg i.v. Q3D×5), in the data set on M109-Lung Tumor (8 mg/kg i.v. Q3D×5), in the data set with HT-29 human colon tumor (2 mg/kg i.v. Q3D×5) and with HT-29 human colon tumor (4 mg/kg i.v. Q3D×5) was 0 each time. For the same molecule, the “Complete Regressions” value (in the data set on HT-29 human colon tumor (6 mg/kg i.v. Q3D×5); in data set [3] (1 mg/kg i.v. Q3D×5); in data set [3] (2 mg/kg i.v. Q3D×5); in data set [3] (4 mg/kg i.v. Q3D×5); in data set [3] (6 mg/kg i.v. Q3D×5); in data set [4] (2 mg/kg i.v. Q3D×5)) was 0 in each case. The “Complete Regressions” value in data set [4] (4 mg/kg i.v. Q3D×5) and in data set [4] (6 mg/kg i.v. Q3D×5) was 0 in each case. Further, the “Days Delay T-C” value in the data set on M109-Lung Tumor (2 mg/kg i.v. Q3D×5) is 0.0 days; with M109-Lung Tumor (4 mg/kg i.v. Q3D×5), 1.4 days; with M109-Lung Tumor (6 mg/kg i.v. Q3D×5), 0.9 days; in the data set with M109-Lung Tumor (8 mg/kg i.v. Q3D×5), 4.6 days; in the data set with HT-29 human colon tumor (2 mg/kg i.v. Q3D×5), 2.2 days; with HT-29 human colon tumor (4 mg/kg i.v. Q3D×5), 4.0 days. The “Days Delay T-C” value is 5.7 days with HT-29 human colon tumor (6 mg/kg i.v. Q3D×5); 15.3 days with HT-29 human colon tumor (6 mg/kg i.v. Q3D×5, listed as doxorubicin); 0.0 days in data set [4] (2 mg/kg i.v. Q3D×5); 6.6 days in data set [4] (4 mg/kg i.v. Q3D×5); 14 days in data set [4] (6 mg/kg i.v. Q3D×5). Besides, the “Drug-related Deaths” value in the data set with M109-Lung Tumor (2 mg/kg i.v. Q3D×5) is listed as 0/5; with M109-Lung Tumor (4 mg/kg i.v. Q3D×5), 0/5; in the data set with M109-Lung Tumor (6 mg/kg i.v. Q3D×5), 0/5; in the data set with M109-Lung Tumor (8 mg/kg i.v. Q3D×5), 0/5; in the data set with HT-29 human colon tumor (2 mg/kg i.v. Q3D×5), 0/10; in the data set on HT-29 human colon tumor (4 mg/kg i.v. Q3D×5) it was 0/10. In addition, the “Drug-related Deaths” value was 0/10 with HT-29 human colon tumor (6 mg/kg i.v. Q3D×5); 0/5 in data set [3] (1 mg/kg i.v. Q3D×5); 0/5 in data set [3] (2 mg/kg i.v. Q3D×5); 0/5 in data set [3] (4 mg/kg i.v. Q3D×5); 0/5 in data set [4] (2 mg/kg i.v. Q3D×5); 0/5 in data set [4] (4 mg/kg i.v. Q3D×5). Further, the “Drug-related Deaths” value in data set [4] (6 mg/kg i.v. Q3D×5) is 1/10. For the same molecule, the incidence of cardiomyopathy in data set [1] (cumulative dose 550 mg/m^2) is reported as 7%; in data set [1] (cumulative dose 600 mg/m^2), 15%; in data set [1] (cumulative dose 700 mg/m^2), 30%. Further, the values for the maximum tolerated dose (MTD) in data set [2] and in data set [2] (nude) were 6 mg/kg and about 6 mg/kg, respectively. The “Tumor Growth Delay T-C” value was 2.6 days in data set [3] (1 mg/kg i.v. Q3D×5); 2.2 days in data set [3] (2 mg/kg i.v. Q3D×5); 4.0 days in data set [3] (4 mg/kg i.v. Q3D×5); 5.7 days in data set [3] (6 mg/kg i.v. Q3D×5, time for tumors to double their mass three times, treated vs vehicle). In addition, the complete responses result in data set [3] (at any dose) is “no complete responses”.
